Tests used:
Aphidius rhopalosiphi = experiment: LR50; higher = less toxic; settings: not reported; mortality
Apis mellifera = settings: acute; duration: 48 hours; oral; unspecified; mortality
Bibionidae = settings: chronic/long-term; duration: 26 days
Anatidae = settings: oral, mortality
Pimephales promelas = settings: chronic/long-term; duration: 32 days
Folsomia candida = settings: chronic/long-term
Mus musculus = settings: chronic; duration: 2 years; body weight
Canidae = settings: chronic; duration: 1 years; oral; Dog Other; body weight
Coturnix japonica = settings: acute, oral, mortality
Oncorhynchus mykiss = settings: acute; duration: 96 hours; mortality
Oryctolagus sp. = settings: reproduction developmental; body weight
Daphnia magna = settings: chronic/long-term; duration: 21 days; reproduction

Compound: Nc1nc(N)nc(NC2CC2)n1 [Cyromazine]
- LR50 (Aphidius rhopalosiphi): ≥ 891 g/ha
- LD50 (Apis mellifera): 186 µg/piece
- LD50 (Rattus norvegicus; acute, mortality): 3390 mg/kg
- NOAEL (Rattus norvegicus; reproduction developmental, reproduction): 30 mg/kg-day
- NOEC (Bibionidae): 0.025 mg/L
- LD50 (Anatidae; acute, unspecified): > 1000 mg/kg
- LC50 (Anatidae; short-term, feed): > 1120 mg/kg-day
- NOEC (Pimephales promelas): 14 mg/L
- NOEC (Folsomia candida): 9.6 mg/kg
- NOAEL (Mus musculus): 6.5 mg/kg-day
- LD50 (Anas platyrhynchos; acute, oral, unspecified, mortality): > 2510 mg/kg
- NOEL (Anas platyrhynchos; reproductive): 38.3 mg/kg-day
- LC50 (Anas platyrhynchos; short-term, oral, feed, mortality): > 526 mg/kg-day
- NOAEL (Canidae): 5.74 mg/kg-day
- LC50 (Coturnix japonica; diet): > 683 mg/kg-day
- LD50 (Coturnix japonica): 2340 mg/kg
- LC50 (Tagia sp.; acute, duration: 14 days, mortality): > 1000 mg/kg
- NOEC (Tagia sp.; chronic/long-term, duration: 56 days, reproduction): 333 mg/kg
- LC50 (Oncorhynchus mykiss): > 100 µg/mL
- NOAEL (Oryctolagus sp.): 10 mg/kg-day
- NOEC (Daphnia magna): 0.31 mg/L
- LC50 (Colinus virginianus; acute, oral, diet, mortality): > 1370 mg/kg-day
- LD50 (Colinus virginianus; acute, oral, mortality): 1780 mg/kg
- NOEL (Colinus virginianus; reproduction developmental): 110 mg/kg-day
